Assays:
HCT-116 [1] = experiment: Antiproliferative activity against human HCT-116 cells assessed as reduction in cell growth incubated for 72 hrs by MTT assay; type: functional, cell-based; settings: HCT-116, 72 h
HCT-116 [2] = experiment: Antiproliferative activity against human HCT-116 cells assessed as reduction in cell viability incubated for 24 hrs by CCK-8 assay; type: functional, cell-based; settings: HCT-116, 24 h

IC50 (HCT-116 [1]) | IC50 (HCT-116 [2]) | Structure (SMILES)
5520 nM |  | O=C(Nc1ccc(C(F)(F)F)cc1)Nc1nnc(Sc2cc(NCCCN3CCOCC3)ncn2)s1
 | 350 nM | O=C1c2ccccc2C(=O)c2c(-c3ccccc3F)noc21

— ChEMBL document CHEMBL5543065, “ATP ion channel P2X7 receptor as a regulatory molecule in the progression of colorectal cancer” (Eur J Med Chem, 2023)
